One compound from publication PMC12666239 (Chembiochem, 2025) can be followed below.

This experiment has as its target Nsp3b^F360N/D361S (Severe acute respiratory syndrome coronavirus 2, UniProt P0DTD1, D1179S/F1178N). The experiment is classed as binding, SARS-CoV-2.

“And” between values parts separate entries of the source, which are not always exact repeats. Equal entries are not always repeated.

As for `N#C[C@@]1(c2ccc3c(N)ncnn23)O[C@H](COS(N)(=O)=O)[C@@H](O)[C@H]1O` [compound 3], the TΔS entry was “≈ 0.10 kcal mol^−1”; the ΔG was −7.73 kcal mol^–1; the ΔH was −7.83 ± 0.15 and −7.83 ± 0.15 kcal mol^–1; the “−TΔS” value was 0.104 kcal mol^–1.
